# Measured values as given in US8288371B2, “Ortho pyrrolidine, benzyl-substituted heterocycle CCR1 antagonists for autoimmune diseases and inflammation” (Pharmacopeia, LLC, priority 2007, dated 2012).
# Biological target: T1, human CCR1 (Homo sapiens, UniProt P32246)
# T1 sequence (P32246 1-355): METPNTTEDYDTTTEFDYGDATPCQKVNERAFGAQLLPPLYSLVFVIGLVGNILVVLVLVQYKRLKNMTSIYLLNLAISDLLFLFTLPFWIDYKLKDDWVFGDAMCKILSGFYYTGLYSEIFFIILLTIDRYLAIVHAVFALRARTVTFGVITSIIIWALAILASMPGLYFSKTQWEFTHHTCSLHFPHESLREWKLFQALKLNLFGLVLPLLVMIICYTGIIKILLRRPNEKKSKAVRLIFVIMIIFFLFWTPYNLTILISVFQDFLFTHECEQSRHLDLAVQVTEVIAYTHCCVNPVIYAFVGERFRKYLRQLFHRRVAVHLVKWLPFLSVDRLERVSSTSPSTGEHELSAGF
# Test: CCR1 binding protocol (SPA, [125I]-MIP-1α displacement)
# Settings: cell membrane expressing human CCR1, 0.1 nM [125I]-MIP-1α, 4 hours at ambient temperature; read-out: Relative potency (IC50)
# Summary of the method: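 Human CCR1 membranes (0.5 μg/well) on SPA beads were incubated with compound and 0.1 nM [125I]-MIP-1α (final) for 4 h at ambient temperature. Buffer was Tris pH 7.4 with NaCl, KCl, MnCl and 0.1% BSA. IC50 came from ½-log compound dilutions (10 mM top DMSO stock) by displacement of bound radioligand.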
row,SMILES,IC50 [nM]
1,CC1(C)CC(NC(=O)N2CCC[C@@H]2c2nnnn2Cc2ccc(Cl)cc2)c2ccccc2O1 (some centres unmarked) [Compound 49],50 to 500
2,Cc1nnc([C@H]2CCCN2/C(=C/[N+](=O)[O-])NCc2ccc(Cl)cc2Cl)n1Cc1ccc(Cl)cc1 [Compound 612],50 to 500
3,Cc1nnc([C@H]2CCCN2C(=O)NC2(c3ccc(C(F)(F)F)cc3)CC2)n1Cc1ccc(Cl)cc1 [Compound 263],< 50
4,O=C(Nc1ccc(Cl)cc1F)N1C[C@H](O)C[C@@H]1c1nncn1Cc1ccc(Cl)cc1 [Compound 480],50 to 500
5,Cc1nnc([C@H]2CCCN2C(=O)Cc2ccc(C(F)(F)F)cc2)n1Cc1ccc(Cl)cc1 [Compound 173],50 to 500
6,Cc1nnc([C@H]2CCCN2C(=O)Nc2ccc(C(F)(F)F)nc2Cl)n1Cc1ccc(Cl)cc1 [Compound 524],< 50
7,Cc1nnc([C@H]2CCCN2C(=O)N[C@H]2CCOc3c(F)ccc(Cl)c32)n1Cc1ccc(Cl)cc1 [Compound 165],50 to 500
8,Cc1noc(-c2ccccc2)c1NC(=O)N1CCC[C@@H]1c1ncnn1Cc1ccc(Cl)cc1 [Compound 60],< 50
9,Cc1onc(-c2ccccc2)c1NC(=O)N1CCC[C@@H]1c1nnc(C)n1Cc1ccc(Cl)cc1 [Compound 126],< 50
10,Cc1nnc([C@H]2CC(F)CN2C(=O)Nc2ccc(Cl)c(C(F)(F)F)c2)n1Cc1ccc(Cl)cc1 (some centres unmarked) [Compound 572],50 to 500
11,Cc1nnc([C@H]2CCCN2C(=O)Nc2ccc3c(c2)N(C)C(=O)CO3)n1[C@H](C)c1ccc(Cl)cc1 [Compound 352],50 to 500
12,Cc1nnc([C@H]2CCCN2C(=O)Nc2ccc(OC3CCOCC3)nc2)n1Cc1ccc(Cl)cc1 [Compound 551],500 to 5000
13,Cc1c(NC(=O)N2CCC[C@@H]2c2nnc(C)n2Cc2ccc(Cl)cc2)ccc(C#N)c1Cl [Compound 528],< 50
14,CNC(=O)c1ccc(C)c(NC(=O)N2CCC[C@@H]2c2nnc(C)n2Cc2ccc(Cl)cc2)c1 [Compound 216],< 50
15,Cc1nnc([C@H]2CCCN2C(=O)Nc2cc(C(N)=O)ccc2Cl)n1Cc1ccc(Cl)cc1 [Compound 332],50 to 500
16,Cc1nnc([C@H]2CCCN2C(=O)Nc2ncc(Cl)cn2)n1Cc1ccc(Cl)cc1 [Compound 344],500 to 5000
17,Cc1nc(C(F)(F)F)ccc1NC(=O)N1CCC[C@@H]1c1nnc(Cl)n1Cc1ccc(Cl)cc1 [Compound 549],< 50
18,Cc1nnc([C@H]2CCCN2C(=O)Nc2ccc(Cl)c(F)c2)n1Cc1ccc(Cl)cc1 [Compound 408],50 to 500
19,Cc1cc(C)c(NC(=O)N2CCC[C@@H]2c2nnc(C)n2Cc2ccc(Cl)cc2)c(C)n1 [Compound 296],< 50
20,Cc1nnc([C@H]2CCCN2C(=O)N[C@H]2COCc3c(F)cccc32)n1Cc1ccc(Cl)cc1 [Compound 138],50 to 500
21,Cc1noc(C)c1NC(=O)N1CCC[C@@H]1c1nnc(C)n1Cc1ccc(Br)cc1 [Compound 554],50 to 500
22,Cc1cccc(C)c1NC(=O)N1CCC[C@@H]1c1nnc(C)n1Cc1ccc(Cl)cc1 [Compound 158],50 to 500
23,Cc1nc(C(F)(F)F)ccc1NC(=O)N1CC2CC2C1c1nnc(C)n1Cc1ccc(Cl)cc1 (centres unmarked) [Compound 544],50 to 500

row,SMILES,IC50 [nM]
1,Cc1cc(C(F)(F)F)cc(C)c1NC(=O)N1CCC[C@@H]1c1nccn1Cc1ccc(Cl)cc1 [Compound 30],< 50
2,Cc1nnc([C@H]2CCCN2C(=O)Cc2ccc(Cl)nc2)n1Cc1ccc(Cl)cc1 [Compound 518],< 50
3,CC[C@H](NC(=O)N1CCC[C@@H]1c1nc(C)nn1Cc1ccc(Cl)cc1)c1c(C)cc(C(F)(F)F)cc1C [Compound 97],500 to 5000
4,Cc1nnc([C@H]2CCCN2C(=O)Nc2ccc(C(F)(F)F)cc2)n1Cc1ccc(Cl)cc1 [Compound 112],50 to 500
5,Cc1nnc([C@H]2CCCN2C(=O)Nc2cc(C(=O)O)ccc2Cl)n1Cc1ccc(Cl)cc1 [Compound 298],500 to 5000
6,Cc1nnc([C@H]2CCCN2C(=O)Nc2ccc3nonc3c2)n1Cc1ccc(Cl)cc1 [Compound 321],50 to 500
7,Cc1nnc([C@H]2CC(C)(O)CN2C(=O)Nc2ccc(Cl)cc2F)n1Cc1ccc(Cl)cc1 (some centres unmarked) [Compound 532],50 to 500
8,Cc1nnc([C@H]2C[C@H](O)CN2C(=O)Nc2ccc(Cl)nc2Cl)n1Cc1ccc(Cl)cc1 [Compound 492],50 to 500
9,Cc1nnc([C@H]2CCCN2C(=O)Nc2ccc(S(=O)(=O)N(C)C)cc2Cl)n1Cc1ccc(Cl)cc1 [Compound 451],< 50
10,Cc1noc(C)c1NC(=O)N1CCC[C@@H]1c1nnc(Cl)n1Cc1ccc(Cl)cc1 [Compound 259],< 50
11,O=C(N[C@H]1CCOc2cc(C(F)(F)F)ccc21)N1CCC[C@@H]1c1nncn1Cc1ccc(Cl)cc1 [Compound 107],< 50
12,Cc1nnc([C@H]2C[C@H](O)CN2C(=O)N[C@H]2CCOc3cc(C(F)(F)F)ccc32)n1Cc1ccc(Cl)cc1 [Compound 432],< 50
13,CC[C@H](NC(=O)N1CCC[C@@H]1c1nnc(C)n1Cc1ccc(Cl)cc1)c1nc2ccccc2o1 [Compound 516],500 to 5000
14,Cc1nnc([C@H]2CCCN2C(=O)NC2COCc3c(F)cccc32)n1Cc1ccc(Cl)cc1 (some centres unmarked) [Compound 142],50 to 500
15,CC(=O)O[C@H]1C[C@H](c2nnc(C)n2Cc2ccc(Cl)cc2)N(C(=O)Nc2ccc(Cl)cc2F)C1 [Compound 481],500 to 5000
16,Cc1nnc([C@H]2CCCN2C(=O)Cc2cc(C(F)(F)F)ccc2F)n1Cc1ccc(Cl)cc1 [Compound 510],< 50
17,Cc1nnc([C@H]2CCCN2C(=O)N[C@H](C)c2nc3ccccc3o2)n1Cc1ccc(Cl)cc1 [Compound 513],< 50
18,CNC(=O)c1ccc(NC(=O)N2CCC[C@@H]2c2nnc(C)n2Cc2ccc(Cl)cc2)c(C)c1 [Compound 234],50 to 500
19,Cc1cc(C(F)(F)F)ccc1NC(=O)N1CCC[C@@H]1c1nncn1Cc1ccc(Cl)cc1 [Compound 104],< 50
20,CCc1cc(Cn2c(C)nnc2[C@H]2CCCN2C(=O)Nc2ccc(C(F)(F)F)nc2C)ccc1Cl [Compound 634],< 50
21,CC[C@H](NC(=O)N1CCC[C@@H]1c1nnc(C)n1Cc1ccc(Cl)cc1)c1ccc(C)nc1C [Compound 625],< 50
22,Cc1ccc(C(C)(C)NC(=O)N2CCC[C@@H]2c2nnc(C)n2Cc2ccc(Cl)cc2)cc1 [Compound 322],< 50
23,CC[C@H](NC(=O)N1CCC[C@@H]1c1nnc(C)n1Cc1ccc(Cl)cc1)c1ccc(C(F)(F)F)cc1 [Compound 125],< 50

row,SMILES,IC50 [nM]
1,CC[C@H](NC(=O)N1CCC[C@@H]1c1nnc(C)n1Cc1ccc(F)cc1)c1ccc(C(F)(F)F)nc1 [Compound 560],< 50
2,Cc1noc(C)c1NC(=O)N1CCC[C@@H]1c1nnc(C)n1C1(c2ccc(Cl)cc2)CC1 [Compound 324],50 to 500
3,Cc1nnc([C@H]2C[C@H](O)CN2C(=O)N[C@H]2CCOc3cc(C#N)ccc32)n1Cc1ccc(Cl)cc1 [Compound 523],< 50
4,O=C(N[C@H]1CCOc2cc(Cl)ccc21)N1CCC[C@@H]1c1ncnn1Cc1ccc(Cl)cc1 [Compound 65],50 to 500
5,O=C(Nc1ccc(Cl)cc1F)N1CCC[C@@H]1c1nnnn1Cc1ccc(Cl)cc1 [Compound 54],50 to 500
6,Cc1cc(Cl)ccc1NC(=O)N1CCC[C@@H]1c1nnc(C)n1Cc1ccc(Cl)cc1 [Compound 409],< 50
7,Cc1nnc([C@H]2CCCN2C(=O)NCc2ccc(C(F)(F)F)nc2)n1Cc1ccc(Cl)cc1 [Compound 221],50 to 500
8,Cc1nnc([C@H]2CCCN2C(=O)NC(C)(C)c2ccc(C(F)(F)F)cc2)n1Cc1ccc(Cl)cc1 [Compound 220],< 50
9,CC(=O)N1CCCC(CNC(=O)N2CCC[C@@H]2c2nnc(C)n2Cc2ccc(Cl)cc2)C1 (some centres unmarked) [Compound 599],50 to 500
10,O=C(Nc1ccc(Cl)cc1F)N1CCC[C@@H]1c1ncnn1Cc1ccc(Cl)cc1 [Compound 68],50 to 500
11,Cc1nnc([C@H]2CCCN2C(=O)Nc2ccc(C#N)cc2F)n1Cc1ccc(Cl)cc1 [Compound 454],50 to 500
12,CNC(=O)c1cccc(NC(=O)N2CCC[C@@H]2c2nnc(C)n2Cc2ccc(Cl)cc2)c1C [Compound 231],50 to 500
13,CC[C@H](NC(=O)N1CCC[C@@H]1c1nncn1Cc1ccc(Cl)cc1)c1c(C)cc(C(F)(F)F)cc1C [Compound 120],< 50
14,Cc1cccc(Cl)c1NC(=O)N1CCC[C@@H]1c1nnc(C)n1Cc1ccc(Cl)cc1 [Compound 151],< 50
15,CNCc1nnc([C@H]2CCCN2C(=O)N[C@H]2CCOc3cc(C(F)(F)F)ccc32)n1Cc1ccc(Cl)cc1 [Compound 413],50 to 500
16,O=C(Nc1ccc(Cl)cc1F)N1CCC[C@@H]1c1nnc(CO)n1Cc1ccc(Cl)cc1 [Compound 310],50 to 500
17,Cc1nnc([C@H]2C[C@H](O)CN2C(=O)N[C@@H](C)c2ccc(Cl)cc2)n1Cc1ccc(Cl)cc1 [Compound 474],< 50
18,Cc1nnc([C@H]2CCCN2C(=O)N[C@H](C)c2ccc(C(F)(F)F)nc2)n1Cc1ccc(Cl)cc1 [Compound 460],< 50
19,Cc1nnc([C@H]2C[C@@H](O)CN2C(=O)NC2CCOc3cc(C#N)ccc32)n1Cc1ccc(Cl)cc1 (some centres unmarked) [Compound 444],50 to 500
20,Cc1nc(C(F)(F)F)ccc1CC(=O)N1CCC[C@@H]1c1nnc(C)n1Cc1ccc(Cl)cc1 [Compound 610],< 50
21,Cc1cc(Cl)cc(C)c1NC(=O)N1CCC[C@@H]1c1nncn1Cc1ccc(Cl)cc1 [Compound 106],< 50
22,O=C(NC1(c2ccc(C(F)(F)F)cc2)CC1)N1C[C@H](O)C[C@@H]1c1nncn1Cc1ccc(Cl)cc1 [Compound 477],50 to 500
